Source: patent US11187660B2, “Fluorescent probes for monitoring voltage by photo-induced electron transfer” (The Regents of the University of California, priority 2011, dated 2021)
Entries after “also recorded” stand apart in the source; their conditions may differ.

Columns and labels:
leech Retzius cell = test: Optical recording of spontaneous activity in leech ganglia; assay type: cell-based, Hirudo medicinalis; conditions: sampling at 50 Hz, stained 15 min
Protocol: A more stringent test of the usefulness of the PeT-based VSD is to determine whether it can accurately measure subthreshold activity in heterogeneous preparations. For this test we used leech ganglia, because their neurons have been well studied using both electrophysiological and other VSD recordings (14, 33-35). We isolated a midbody ganglion and stained it with VF2.1.Cl for 15 min at 22° C. (FIG. 13C). Insertion of a sharp electrode (25 MΩ) into a Retzius cell to enabled recording of its spontaneous activity while simultaneously recording the fluorescence signals from the same cell. […] The optically recorded spikes are truncated as a result of undersampling the optical signal; sampling at a higher rate (722 Hz) fully resolved the action potentials, but introduced a significant amount of sampling noise (FIG. 14). Although the action potential was subsampled at just 50 Hz, there is still a reliable transient in the optical trace that indicates the time when an action potential occurs, which is often what is needed.
Isolated midbody ganglia (Ganglia 8-16) were dissected from Hirudo medicinalis and the ventral side was desheathed using standard procedures. […]
Imaging was done with a Cascade 128+ EMCCD camera (Photometrics). […] The fluorescence illumination was from an LED that has its peak excitation wave-length in the excitation range for FITC. […] The data is stored in Matlab-readable files.

[1] = Absorbance and emission spectra in n-octanol; assay type: physicochemical
Protocol: VF2.4.Cl features an absorbance spectrum with a λmax in octanol (to simulate cellular membranes) centered at 527 nm (ε527=4×10^4 M^−1 cm^−1). Excitation of VF2.4.Cl at 527 nm results in emission centered at 540 nm (Φ=0.23) (FIG. 3).
UV absorbance and fluorescence spectra were recorded on a Cary 3E (Varian) and Fluorolog 2 (Spex) fluorimeter, respectively. Analytical, semi-preparative, and preparative HPLCs were performed on Agilent HPLCs, with Luna C18(2) columns (Phenomenex) using water (solvent A) and acetonitrile (solvent B) with 0.05% TFA as an additive. Low resolution ESI mass spectrometry was performed on an Agilent LC/MSD Trap XCT coupled to an Agilent HPLC. High resolution mass spectra were acquired on a ThermoFisher Orbitrap XL hybrid mass spectrometer. ^1H NMR spectra were collected in CDCl3 or d6-DMSO (Cambridge Isotope Laboratories, Cambridge, Mass.) at 25° C. on a 400 Varian Mercury Plus or Jeol ECA 500 spectrometer at the Department of Chemistry and Biochemistry NMR Facility at the University of California, San Diego. All chemical shifts are reported in the standard δ notation of parts per million using the peak of residual proton signals of CDCl3 or d6-DMSO as an internal reference.

| SMILES | optical recording versus electrical recording of spontaneous activity (leech Retzius cell) | absorbance λmax [1] | Φ [1] | ε527 [1] | emission centered at ([1]; excitation at 527 nm) |
| --- | --- | --- | --- | --- | --- |
| CN(C)c1ccc(/C=C/c2ccc(/C=C/c3ccc(-c4c5cc(Cl)c(=O)cc-5oc5cc(O)c(Cl)cc45)c(S(=O)(=O)O)c3)cc2)cc1 [VF2.1.Cl, 5-(4-(4-(dimethyllamino)styryl)styryl)-2-(2,7-dichloro-6-hydroxy-3-oxo-3H-xanthen-9-yl)benzenesulfonic acid] | near-perfect matching of the subthreshold membrane potential; also recorded: faithfully followed the subthreshold fluctuations |  |  |  |  |
| CCCCN(CCCC)c1ccc(/C=C/c2ccc(/C=C/c3ccc(-c4c5cc(Cl)c(=O)cc-5oc5cc(O)c(Cl)cc45)c(S(=O)(=O)O)c3)cc2)cc1 [VF2.4.Cl, 5-(4-(4-(dibutylamino)styryl)styryl)-2-(2,7-dichloro-6-hydroxy-3-oxo-3H-xanthen-9-yl)benzenesulfonic acid] |  | 527 nm | 0.23 | 40000 M⁻¹ cm⁻¹ | 540 nm |
